Results from ChEMBL document CHEMBL5506059, “Cyanomethylquinolones as a New Class of Potential Multitargeting Broad-Spectrum Antibacterial Agents” (J Med Chem, 2024).
Values after ≈ are worked out from the molar mass of the structure shown. Active and inactive are the calls of the source. The rule behind the calls is not given here.

Legend:
[1] = system: Pseudomonas aeruginosa; assay: Antibacterial activity against Pseudomonas aeruginosa clinical isolate assessed as inhibition of bacterial growth incubated for 24 hrs; assay type: functional
[2] = system: Acinetobacter baumannii; assay: Antibacterial activity against Acinetobacter baumannii clinical isolate assessed as inhibition of bacterial growth incubated for 24 hrs; assay type: functional
[3] = system: Staphylococcus aureus; assay: Antibacterial activity against Staphylococcus aureus clinical isolate assessed as inhibition of bacterial growth incubated for 24 hrs; assay type: functional
[4] = system: Staphylococcus aureus; assay: Antibacterial activity against Staphylococcus aureus ATCC 29213 assessed as inhibition of bacterial growth incubated for 24 hrs; assay type: functional
[5] = system: Pseudomonas aeruginosa; assay: Induction of intracellular ROS generation in Pseudomonas aeruginosa assessed as increase in fluorescence intensity at 2 ug/ml incubated for 6 hrs in presence of N-acetyl-L-cysteine by DCFH-DA dye based fluorescence analysis; assay type: functional, organism-based; details: dose 2.0 µg/ml
[6] = system: Staphylococcus aureus; assay: Antibacterial activity against Staphylococcus aureus CMCC(B)26003 assessed as inhibition of bacterial growth incubated for 24 hrs; assay type: functional
[7] = system: Erythrocyte; assay: Hemolytic activity in human Red blood cells assessed as concentration required for 5% hemolysis measured after 1.5 hrs by absorbance based assay; assay type: toxicity, cell-based
[8] = system: Staphylococcus aureus; assay: Antibacterial activity against methicillin resistant Staphylococcus aureus clinical isolate assessed as inhibition of bacterial growth incubated for 24 hrs; assay type: functional
[9] = Hemolytic activity in human Red blood cells at 256 ug/ml measured after 1.5 hrs by absorbance based assay relative to control; assay type: toxicity, cell-based, Erythrocyte; details: red blood cells (erythrocytes), at 256 µg/mL, read-out: Activity
[10] = system: Staphylococcus aureus; assay: Antibacterial activity against Staphylococcus aureus CMCC(B)26001 assessed as inhibition of bacterial growth incubated for 24 hrs; assay type: functional
[11] = system: Enterococcus faecium; assay: Antibacterial activity against Enterococcus faecium ATCC 19434 assessed as inhibition of bacterial growth incubated for 24 hrs; assay type: functional
[12] = system: Pseudomonas aeruginosa; assay: Resistance development in Pseudomonas aeruginosa assessed as increase in MIC measured after 20 days; assay type: functional, organism-based; details: time 20.0 day
[13] = system: Escherichia coli; assay: Antibacterial activity against Escherichia coli clinical isolate assessed as inhibition of bacterial growth incubated for 24 hrs; assay type: functional
[14] = system: Staphylococcus epidermidis; assay: Antibacterial activity against Staphylococcus epidermidis ATCC 12228 assessed as inhibition of bacterial growth incubated for 24 hrs; assay type: functional
[15] = system: Enterococcus faecalis; assay: Antibacterial activity against vancomycin-resistant Enterococcus faecalis clinical isolate p1-2007225053 assessed as inhibition of bacterial growth incubated for 24 hrs; assay type: functional
[16] = system: Calf thymus DNA; assay: Binding affinity to calf thymus DNA assessed as DNA-compound complex formation by measuring hyperchromism at 0 to 3.3 x 10^-8mol/L by UV absorption spectra based analysis; assay type: nucleic-acid assay; details: Bos taurus; dose 0-3.3 10^-8mol/L
[17] = system: Enterococcus faecalis; assay: Antibacterial activity against Enterococcus faecalis clinical isolate assessed as inhibition of bacterial growth incubated for 24 hrs; assay type: functional
[18] = system: Staphylococcus aureus; assay: Resistance development in methicillin resistant Staphylococcus aureus assessed as increase in MIC measured after 20 days; assay type: functional, organism-based; details: time 20.0 day
[19] = system: Staphylococcus aureus; assay: Antibacterial activity against Staphylococcus aureus ATCC 25923 assessed as inhibition of bacterial growth incubated for 24 hrs; assay type: functional
[20] = system: Pseudomonas aeruginosa; assay: Induction of intracellular ROS generation in Pseudomonas aeruginosa assessed as increase in fluorescence intensity at 2 ug/ml incubated for 6 hrs by DCFH-DA dye based fluorescence analysis; assay type: functional, organism-based; details: dose 2.0 µg/ml
[21] = system: Streptococcus pneumoniae; assay: Antibacterial activity against Streptococcus pneumoniae ATCC 6305 assessed as inhibition of bacterial growth incubated for 24 hrs; assay type: functional
[22] = system: Pseudomonas aeruginosa; assay: Antibiofilm activity in Pseudomonas aeruginosa assessed as biofilm eradication measured after 24 hrs by crystal violet staining based analysis; assay type: functional, organism-based; details: dose 1-2 µg/ml
[23] = system: Calf thymus DNA; assay: Binding affinity to calf thymus DNA assessed as disruption of DNA confirmation by measuring blue shift at 0 to 3.3x10^-8mol/L by UV absorption spectra based analysis; assay type: nucleic-acid assay; details: Bos taurus; dose 0-3.3 10^-8mol/L
[24] = system: Staphylococcus aureus; assay: Antibacterial activity against methicillin resistant Staphylococcus aureus clinical isolate assessed as inhibition of bacterial growth at 1 times MIC incubated under dark condition and measured upto 5 hrs relative to control; assay type: functional
[25] = system: Calf thymus DNA; assay: Binding affinity to calf thymus DNA assessed as DNA-compound complex formation by measuring increase in absorption of DNA at 260 nm at 0 to 3.3 x 10^-8mol/L by UV absorption spectra based analysis; assay type: nucleic-acid assay; details: Bos taurus; dose 0-3.3 10^-8mol/L
[26] = system: Pseudomonas aeruginosa; assay: Antibacterial activity against Pseudomonas aeruginosa ATCC 27853 assessed as inhibition of bacterial growth incubated for 24 hrs; assay type: functional
[27] = system: Staphylococcus aureus; assay: Antibacterial activity against methicillin resistant Staphylococcus aureus assessed as reduction in metabolic activity by measuring reduction in fluorescence intensity at 0.5 to 2 times MIC incubated for 6 hrs by alamar blue assay; assay type: functional, organism-based
[28] = system: Staphylococcus aureus; assay: Antibacterial activity against methicillin-resistant Staphylococcus aureus ATCC 43300 assessed as inhibition of bacterial growth incubated for 24 hrs; assay type: functional
[29] = system: Calf thymus DNA; assay: Competitive binding affinity to calf thymus DNA assessed as displacement of neutral red from DNA-neutral red complex by measuring reduction in absorbance at 540 nm at 0 to 2.9x10^-8 mol/L by UV absorption spectroscopy; assay type: nucleic-acid assay; details: Bos taurus; dose 0-2.9 10^-8mol/L
[30] = system: Staphylococcus aureus; assay: Antibacterial activity against Staphylococcus aureus ATCC 6538 assessed as inhibition of bacterial growth incubated for 24 hrs; assay type: functional
[31] = system: Klebsiella pneumoniae; assay: Antibacterial activity against Klebsiella pneumoniae clinical isolate assessed as inhibition of bacterial growth incubated for 24 hrs; assay type: functional
[32] = system: Escherichia coli; assay: Antibacterial activity against Escherichia coli ATCC 25922 assessed as inhibition of bacterial growth incubated for 24 hrs; assay type: functional
[33] = system: Streptococcus pyogenes; assay: Antibacterial activity against Streptococcus pyogenes ATCC 19615 assessed as inhibition of bacterial growth incubated for 24 hrs; assay type: functional
[34] = system: Staphylococcus aureus; assay: Antibacterial activity against Staphylococcus aureus ATCC 12600 assessed as inhibition of bacterial growth incubated for 24 hrs; assay type: functional
[35] = system: Enterococcus faecalis; assay: Antibacterial activity against vancomycin-resistant Enterococcus faecalis clinical isolate p1-2007226001 assessed as inhibition of bacterial growth incubated for 24 hrs; assay type: functional
[36] = system: Staphylococcus aureus; assay: Antibiofilm activity in methicillin resistant Staphylococcus aureus assessed as biofilm eradication measured after 24 hrs by crystal violet staining based analysis; assay type: functional, organism-based; details: dose 1-2 µg/ml
[37] = system: Pseudomonas aeruginosa; assay: Antibacterial activity against Pseudomonas aeruginosa assessed as reduction in metabolic activity by measuring reduction in fluorescence intensity at 0.5 to 2 times MIC incubated for 6 hrs by alamar blue assay; assay type: functional, organism-based
[38] = system: Cell membrane; assay: Induction of cell membrane damage in methicillin-resistant Staphylococcus aureus assessed as increase in nucleic acid leakage at 0 to 2 ug/ml incubated for 12 hrs by optical density based microplate reader analysis; assay type: cell membranes; details: dose 0-2 µg/ml
[39] = system: Cell membrane; assay: Induction of cell membrane permeability in methicillin-resistant Staphylococcus aureus assessed as increase in fluorescence intensity at 1 to 2 ug/ml incubated for 6 hrs by PI staining based fluorescence analysis; assay type: cell membranes; details: dose 1-2 µg/ml
[40] = system: Cell membrane; assay: Induction of cell membrane damage in Pseudomonas aeruginosa assessed as increase in nucleic acid leakage at 0 to 2 ug/ml incubated for 12 hrs by optical density based microplate reader analysis; assay type: cell membranes; details: dose 0-2 µg/ml
[41] = system: Cell membrane; assay: Induction of cell membrane permeability in Pseudomonas aeruginosa assessed as increase in fluorescence intensity at 1 to 2 ug/ml incubated for 6 hrs by PI staining based fluorescence analysis; assay type: cell membranes; details: dose 1-2 µg/ml
[42] = system: Cell membrane; assay: Induction of cell membrane depolarization in methicillin-resistant Staphylococcus aureus assessed as increase in fluorescence intensity at 1 ug/ml measured for 30 mins by DiSC35 dye based fluorescence analysis; assay type: cell membranes; details: dose 1.0 µg/ml
[43] = system: Staphylococcus aureus; assay: Antibacterial activity against methicillin resistant Staphylococcus aureus clinical isolate assessed as inhibition of bacterial growth incubated under dark condition and measured upto 5 hrs; assay type: functional, organism-based
[44] = system: Cell membrane; assay: Induction of cell membrane depolarization in Pseudomonas aeruginosa assessed as increase in fluorescence intensity at 1 ug/ml measured for 30 mins by DiSC35 dye based fluorescence analysis; assay type: cell membranes; details: dose 1.0 µg/ml

SMILES	MIC [1]	MIC [2]	MIC [3]	MIC [4]	Activity [5]	MIC [6]	HC5 [7]	MIC [8]	hemolysis at 1.5 h, 256 ug/ml [9]	MIC [10]	MIC [11]	Activity [12]	MIC [13]	MIC [14]	MIC [15]	MIC [17]	Activity [18]	MIC [19]	Activity [20]	MIC [21]	also measured
C#CCn1cc(C(=O)O)c(=O)c2cc(F)c(CC#N)cc21	0.25 µg/mL (≈ 0.88 µM)	0.5 µg/mL (≈ 1.76 µM)	256 µg/mL (≈ 901 µM)	1 µg/mL (≈ 3.52 µM)	inactive	2 µg/mL (≈ 7.04 µM)	> 10000 µg/mL	0.5 µg/mL (≈ 1.76 µM)	< 1%	4 µg/mL (≈ 14.1 µM)	4 µg/mL (≈ 14.1 µM)	inactive	1 µg/mL (≈ 3.52 µM)	4 µg/mL (≈ 14.1 µM)	8 µg/mL (≈ 28.1 µM)	1 µg/mL (≈ 3.52 µM)	inactive	0.25 µg/mL (≈ 0.88 µM)	Active	32 µg/mL (≈ 113 µM)	Activity [16]: Active; Activity [22]: Dose-Dependent Effect; Activity [23]: Active; inhibition (INH) [24]: ~100%; Activity [25]: Active; MIC [26]: 1 µg/mL (≈ 3.52 µM); Activity [27]: Active; MIC [28]: 4 µg/mL (≈ 14.1 µM); Activity [29]: Active; MIC [30]: 2 µg/mL (≈ 7.04 µM); MIC [31]: 2 µg/mL (≈ 7.04 µM); MIC [32]: 0.5 µg/mL (≈ 1.76 µM); MIC [33]: 1 µg/mL (≈ 3.52 µM); MIC [34]: 16 µg/mL (≈ 56.3 µM); MIC [35]: 16 µg/mL (≈ 56.3 µM); Activity [36]: Dose-Dependent Effect; Activity [37]: Active
O=C(O)Cc1cc2c(cc1F)c(=O)c(C(=O)O)cn2C1CC1	0.5 µg/mL (≈ 1.64 µM)	0.5 µg/mL (≈ 1.64 µM)	4 µg/mL (≈ 13.1 µM)	2 µg/mL (≈ 6.55 µM)	inactive	0.125 µg/mL (≈ 0.409 µM)	> 10000 µg/mL	0.5 µg/mL (≈ 1.64 µM)	< 1%	0.125 µg/mL (≈ 0.409 µM)	8 µg/mL (≈ 26.2 µM)	inactive	1 µg/mL (≈ 3.28 µM)	2 µg/mL (≈ 6.55 µM)	2 µg/mL (≈ 6.55 µM)	4 µg/mL (≈ 13.1 µM)	inactive	32 µg/mL (≈ 105 µM)	Active	4 µg/mL (≈ 13.1 µM)	Activity [38]: Active; Activity [39]: Active; Activity [40]: Active; Activity [41]: Active; Activity [22]: Dose-Dependent Effect; MIC [26]: 2 µg/mL (≈ 6.55 µM); Activity [27]: Active; MIC [28]: 2 µg/mL (≈ 6.55 µM); Activity [42]: Active; MIC [30]: 0.25 µg/mL (≈ 0.819 µM); Activity [43]: Dose-Dependent Effect; MIC [31]: 8 µg/mL (≈ 26.2 µM); MIC [32]: 0.5 µg/mL (≈ 1.64 µM); MIC [33]: 1 µg/mL (≈ 3.28 µM); MIC [34]: 1 µg/mL (≈ 3.28 µM); MIC [35]: 8 µg/mL (≈ 26.2 µM); Activity [44]: Active; Activity [36]: Dose-Dependent Effect; Activity [37]: Active
